The supplement of paper PMC11061612

Assays:
AZD1775 = compound: C=CCn1c(=O)c2cnc(Nc3ccc(N4CCN(C)CC4)cc3)nc2n1-c1cccc(C(C)(C)O)n1 [AZD1775]; conditions: max 3 µM
How it was run: (§1)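 Cancer cell lines were dosed for 72 hours (final DMSO typically 0.2%) after 24 hours at 37°C and 5% CO2 in 1536-well plates containing 7.5 μl DMEM/F12 or RPMI with 10% FBS. Viability came from CellTiter-Glo 2.0 luminescence, scaled between blank-well and DMSO-well means, and dose responses were fitted to a two-parameter logistic curve with a non-linear mixed effects model. The single-agent IC50 was obtained from this fit.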

SRA737 = compound: N#Cc1cnc(Nc2cc(NC[C@H]3CNCCO3)c(C(F)(F)F)cn2)cn1 [SRA737]; conditions: max 10 µM
How it was run: as §1

Lapatinib = compound: CS(=O)(=O)CCNCc1ccc(-c2ccc3ncnc(Nc4ccc(OCc5cccc(F)c5)c(Cl)c4)c3c2)o1 [Lapatinib]; conditions: max 10 µM
How it was run: as §1

AZD4320 = compound: CN(CC[C@H](CSC1=CC=CC=C1)NC2=C(C=C(C=C2)S(=O)(=O)NC(=O)C3=CC=C(C=C3)N4CCC(CC4)[C@H](C5=CC=CC=C5C6=CC=C(C=C6)Cl)O)S(=O)(=O)C(F)(F)F)CCO [AZD4320]; conditions: max 1 µM
How it was run: as §1

SN-38 = compound: CCc1c2c(nc3ccc(O)cc13)-c1cc3c(c(=O)n1C2)COC(=O)[C@]3(O)CC [SN-38]; conditions: max 0.3 µM
How it was run: as §1

Carboplatin = compound: C1CC(C1)(C(=O)[O-])C(=O)[O-].N.N.[Pt+2] [Carboplatin]; conditions: max 10 µM
How it was run: as §1

Gefitinib = compound: COc1cc2ncnc(Nc3ccc(F)c(Cl)c3)c2cc1OCCCN1CCOCC1 [Gefitinib]; conditions: max 10 µM
How it was run: as §1

Palbociclib = compound: CC(=O)c1c(C)c2cnc(Nc3ccc(N4CCNCC4)cn3)nc2n(C2CCCC2)c1=O [Palbociclib]; conditions: max 10 µM
How it was run: as §1

Dasatinib = compound: CC1=C(C(=CC=C1)Cl)NC(=O)C2=CN=C(S2)NC3=CC(=NC(=N3)C)N4CCN(CC4)CCO [Dasatinib]; conditions: max 2 µM
How it was run: as §1

Trametinib = compound: CC(=O)Nc1cccc(-n2c(=O)n(C3CC3)c(=O)c3c(Nc4ccc(I)cc4F)n(C)c(=O)c(C)c32)c1 [Trametinib]; conditions: max 1 µM
How it was run: as §1

AZD5363 = compound: C1CN(CCC1(C(=O)N[C@@H](CCO)C2=CC=C(C=C2)Cl)N)C3=NC=NC4=C3C=CN4 [AZD5363]; conditions: max 10 µM
How it was run: as §1

AZD5153 = compound: COc1nnc2ccc(N3CCC(c4ccc(OCCN5CCN(C)C(=O)[C@H]5C)cc4)CC3)nn12 [AZD5153]; conditions: max 1 µM
How it was run: as §1

MK-2206 = compound: NC1(c2ccc(-c3nc4ccn5c(=O)[nH]nc5c4cc3-c3ccccc3)cc2)CCC1 [MK-2206]; conditions: max 10 µM
How it was run: as §1

AZD1390 = compound: CC(C)n1c(=O)n(C)c2cnc3cc(F)c(-c4ccc(OCCCN5CCCCC5)nc4)cc3c21 [AZD1390]; conditions: max 0.3 µM
How it was run: as §1

Olaparib = compound: O=C(c1cc(Cc2n[nH]c(=O)c3ccccc23)ccc1F)N1CCN(C(=O)C2CC2)CC1 [Olaparib]; conditions: max 10 µM
How it was run: as §1

[1] = compound: O=C(Nc1ccc2[nH]nc(-c3ccncc3)c2c1)[C@@H]1CCN(CC(=O)N2CCN(c3ccc(-c4ncccn4)cc3)CC2)C1; conditions: max 5 µM
How it was run: as §1

Savolitinib = compound: C[C@@H](c1ccc2nccn2c1)n1nnc2ncc(-c3cnn(C)c3)nc21 [Savolitinib]; conditions: max 1 µM
How it was run: as §1

Selumetinib = compound: Cn1cnc2c(F)c(Nc3ccc(Br)cc3Cl)c(C(=O)NOCCO)cc21 [Selumetinib]; conditions: max 10 µM
How it was run: as §1

Etoposide = compound: COc1cc([C@@H]2c3cc4c(cc3[C@@H](O[C@@H]3O[C@@H]5CO[C@@H](C)O[C@H]5[C@H](O)[C@H]3O)[C@H]3COC(=O)[C@H]23)OCO4)cc(OC)c1O [Etoposide]; conditions: max 10 µM
How it was run: as §1

Crizotinib = compound: C[C@@H](Oc1cc(-c2cnn(C3CCNCC3)c2)cnc1N)c1c(Cl)ccc(F)c1Cl [Crizotinib]; conditions: max 10 µM
How it was run: as §1

AZD7648 = compound: Cc1cc2ncnn2cc1Nc1ncc2c(n1)n(C1CCOCC1)c(=O)n2C [AZD7648]; conditions: max 10 µM
How it was run: as §1

AZD2811 = compound: CCN(CCO)CCCOc1ccc2c(Nc3cc(CC(=O)Nc4cccc(F)c4)[nH]n3)ncnc2c1 [AZD2811]; conditions: max 1 µM
How it was run: as §1

Gemcitabine = compound: Nc1ccn([C@@H]2O[C@H](CO)[C@@H](O)C2(F)F)c(=O)n1 [Gemcitabine]; conditions: max 0.3 µM
How it was run: as §1

Venetoclax = compound: CC1(C)CCC(CN2CCN(c3ccc(C(=O)NS(=O)(=O)c4ccc(NCC5CCOCC5)c([N+](=O)[O-])c4)c(Oc4cnc5[nH]ccc5c4)c3)CC2)=C(c2ccc(Cl)cc2)C1 [Venetoclax]; conditions: max 1 µM
How it was run: as §1

Doxorubicin = compound: COc1cccc2c1C(=O)c1c(O)c3c(c(O)c1C2=O)C[C@@](O)(C(=O)CO)C[C@@H]3O[C@H]1C[C@H](N)[C@H](O)[C@H](C)O1 [Doxorubicin]; conditions: max 1 µM
How it was run: as §1

AZD8186 = compound: C[C@@H](Nc1cc(F)cc(F)c1)c1cc(C(=O)N(C)C)cc2c(=O)cc(N3CCOCC3)oc12 [AZD8186]; conditions: max 10 µM
How it was run: as §1

Prexasertib = compound: COc1cccc(OCCCN)c1-c1cc(Nc2cnc(C#N)cn2)n[nH]1 [Prexasertib]; conditions: max 1 µM
How it was run: as §1

SG3199 = compound: CC1=CN2[C@@H](C1)C=NC3=CC(=C(C=C3C2=O)OC)OCCCCCOC4=C(C=C5C(=C4)N=C[C@@H]6CC(=CN6C5=O)C)OC [SG3199]; conditions: max 0.001 µM
How it was run: as §1

Alisertib = compound: COc1cc(Nc2ncc3c(n2)-c2ccc(Cl)cc2C(c2c(F)cccc2OC)=NC3)ccc1C(=O)O [Alisertib]; conditions: max 10 µM
How it was run: as §1

AZD5991 = compound: Cc1c2c(nn1C)CSCc1cc(n(C)n1)CSc1cc(c3ccccc3c1)OCCCc1c(C(=O)O)n(C)c3c-2c(Cl)ccc13 [AZD5991]; conditions: max 1 µM
How it was run: as §1

AZD0156 = compound: CN(C)CCCOc1ccc(-c2ccc3ncc4c(c3c2)n(C2CCOCC2)c(=O)n4C)cn1 [AZD0156]; conditions: max 3 µM
How it was run: as §1

Paclitaxel = compound: CC(=O)O[C@H]1C(=O)[C@@]2(C)[C@H]([C@H](OC(=O)c3ccccc3)[C@]3(O)C[C@H](OC(=O)[C@H](O)[C@@H](NC(=O)c4ccccc4)c4ccccc4)C(C)=C1C3(C)C)[C@]1(OC(C)=O)CO[C@@H]1C[C@@H]2O [Paclitaxel]; conditions: max 3 µM
How it was run: as §1

5-Fluorouracil = compound: O=c1[nH]cc(F)c(=O)[nH]1 [5-Fluorouracil]; conditions: max 20 µM
How it was run: as §1

Taselisib = compound: Cc1nc(-c2cn3c(n2)-c2ccc(-c4cnn(C(C)(C)C(N)=O)c4)cc2OCC3)n(C(C)C)n1 [Taselisib]; conditions: max 10 µM
How it was run: as §1

AZD6738 = compound: C[C@@H]1COCCN1C2=NC(=NC(=C2)C3(CC3)[S@](=N)(=O)C)C4=C5C=CNC5=NC=C4 [AZD6738]; conditions: max 10 µM
How it was run: as §1

| Cell Line | IC50, cell viability 72 h (AZD1775) | IC50, cell viability 72 h (SRA737) | IC50, cell viability 72 h (Lapatinib) | IC50, cell viability 72 h (AZD4320) | IC50, cell viability 72 h (SN-38) | IC50, cell viability 72 h (Carboplatin) | IC50, cell viability 72 h (Gefitinib) | IC50, cell viability 72 h (Palbociclib) | IC50, cell viability 72 h (Dasatinib) | IC50, cell viability 72 h (Trametinib) | IC50, cell viability 72 h (AZD5363) | IC50, cell viability 72 h (AZD5153) | IC50, cell viability 72 h (MK-2206) | IC50, cell viability 72 h (AZD1390) | IC50, cell viability 72 h (Olaparib) | IC50, cell viability 72 h [1] | IC50, cell viability 72 h (Savolitinib) | IC50, cell viability 72 h (Selumetinib) | IC50, cell viability 72 h (Etoposide) | IC50, cell viability 72 h (Crizotinib) | IC50, cell viability 72 h (AZD7648) | IC50, cell viability 72 h (AZD2811) | IC50, cell viability 72 h (Gemcitabine) | IC50, cell viability 72 h (Venetoclax) | IC50, cell viability 72 h (Doxorubicin) | IC50, cell viability 72 h (AZD8186) | IC50, cell viability 72 h (Prexasertib) | IC50, cell viability 72 h (SG3199) | IC50, cell viability 72 h (Alisertib) | IC50, cell viability 72 h (AZD5991) | IC50, cell viability 72 h (AZD0156) | IC50, cell viability 72 h (Paclitaxel) | IC50, cell viability 72 h (5-Fluorouracil) | IC50, cell viability 72 h (Taselisib) | IC50, cell viability 72 h (AZD6738) |
| --- | --- | --- | --- | --- | --- | --- | --- | --- | --- | --- | --- | --- | --- | --- | --- | --- | --- | --- | --- | --- | --- | --- | --- | --- | --- | --- | --- | --- | --- | --- | --- | --- | --- | --- | --- |
| WSU-NHL (B-Cell Non-Hodgkin's Lymphoma) | 410 nM | 2310 nM | 9550 nM | 81.4 nM | 2.41 nM | > 10000 nM | > 10000 nM | 1280 nM | 12.6 nM | > 1000 nM | 809 nM | 45.9 nM | 543 nM | > 300 nM | 7070 nM | > 5000 nM | > 1000 nM | > 10000 nM | 160 nM | 4520 nM | > 10000 nM | 134 nM | 5.25 nM | 64.2 nM | 14.2 nM | 397 nM | 15.2 nM | > 1 nM | 73.6 nM | 321 nM | > 3000 nM | < 3 nM | 5460 nM | 70.5 nM | 998 nM |
| YAPC (Pancreatic Carcinoma) | > 3000 nM | > 10000 nM | > 10000 nM | > 1000 nM | 113 nM | > 10000 nM | > 10000 nM | > 10000 nM | > 2000 nM | > 1000 nM | > 10000 nM | > 1000 nM | > 10000 nM | > 300 nM | > 10000 nM | > 5000 nM | > 1000 nM | > 10000 nM | > 10000 nM | > 10000 nM | > 10000 nM | > 1000 nM | 212 nM | > 1000 nM | > 1000 nM | > 10000 nM | 641 nM | > 1 nM | > 10000 nM | > 1000 nM | > 3000 nM | > 3000 nM | > 20000 nM | > 10000 nM | > 10000 nM |
